# In paper PMC11677692, “Analysis of Thiodiphenol in Rat Urine as a Biomarker of Exposure to Temephos” (Journal of Xenobiotics, 2024):
# “And” between values parts separate entries of the source, which are not always exact repeats. Identical values can stand only once. Like-named read-outs stand apart in the source and are kept apart here.
# Assays:
# [1] = Urinary excretion kinetics of temephos metabolites after a single oral dose of temephos; type: in vivo, adult male Wistar rats; conditions: for parent compound in urine: urine samples with and without enzyme hydrolysis, single oral dose 300 mg/kg; for parent compound in urine / Tmax / k el / half-life: 300 mg/kg; for Tmax / k el / half-life: male, Wistar, rat, po
# Description: Animals were individually housed in acrylic metabolism cages for the collection of urine for 8:16 h cycles (inside and outside the cage) for their adaptation during 8 d before treatment. Animals were orally administered with a single dose of temephos (300 mg/kg) emulsified with saline solution (0.9% NaCl). Urine was collected at intervals of 0–8, 8–16, 16–24, 24–48, 60–72, 84–96, 108–120, 132–144, 156–168, 228–240, and 324–336 h. Urine samples were collected and immediately centrifuged at 1600× g for 5 min at 4 °C (Eppendorf 5804R, Hamburg, Germany) and stored at −20 °C until processed for analysis.
# (§1) Temephos urinary metabolites were enzymatically deconjugated, according to Cruz-Hurtado et al., with some modifications. Briefly, 200 µL of urine and 2000 IU of β-glucuronidase/sulfatase were added to a 0.5 M sodium acetate buffer at pH 5 to reach a final volume of 1 mL. The mixture was incubated at 50 °C in a water bath for an hour. To determine the optimal concentration of deconjugated temephos metabolites in the enzymatic hydrolysis assay, the concentration of β-glucuronidase/sulfatase was assessed from 250 to 4000 IU/mL. The enzymatic reaction was stopped by adding 10 mL of methylene chloride and cooling at room temperature; the mixture was vortexed for 1 min and then centrifuged at 1600× g for 15 min at room temperature. The organic phase was collected, and another residue extraction was performed using 10 mL of diethyl ether. Both supernatants were pooled and dried using anhydrous sodium sulfate. The solvent evaporated under a nitrogen current. The extracts were stored at −20 °C until analysis by HPLC-DAD. Extracts were dissolved in 200 µL of acetonitrile immediately before analysis. Urinary levels of temephos metabolites were adjusted by creatinine, which was determined using a commercial kit from Randox (CR510, Randox Laboratories Ltd., Crumlin, UK).
# Temephos and its metabolites were analyzed by injecting urinary extracts into a liquid chromatograph equipped with a quaternary pump, autosampler, degasser, and UV-Vis Diode-Array detector (Agilent 1200, Agilent Technologies, Palo Alto, CA, USA). A ZORBAX Eclipse XDB C-18 column (4.6 × 150 mm, 5 µm) was used (Agilent Technologies, Deerfield, IL, USA). The detector wavelength was set at 254 nm, the reference wavelength was 550 nm, and the mobile phase was modified from Verdín-Betancourt et al.; it consisted of methanol (A), acetonitrile (B), and water (C), with initial solvent conditions of 27% A, 8% B, and 65% C at a rate of 1 mL/min at 25 °C. After injecting the sample (with different volumes), a 2.5 min linear gradient change was applied to achieve 23.5% A, 12.5% B, and 64% C, which was maintained for 1 min, followed by a second 2.5 min linear gradient change to 18% A, 18% B, and 64% C. Afterwards, another 4 min linear gradient change was applied to reach 20% A, 30% B, and 50% C. This condition was maintained for 2 min. Then, a fourth gradient change was applied, achieving 70% A, 25% B, and 5% C. In the end, the initial conditions were re-established to 27% A, 8% B, and 65% C. The column was equilibrated for 2 min before the next injection. The identity of temephos and its metabolites were confirmed by their retention time (tret) and UV spectra of standards. The concentrations of temephos, TDP, TDP-SO, and BPS were determined using calibration graphs of each compound. The concentration of the non-identified metabolite (NIM) was estimated using the Tem-dox-SO calibration graph due to their similarity in the UV spectrum and tret.
# The urinary elimination constant (KElim-U) to determine the half-life of elimination (t1/2 Elim-U) for TDP, BPS, and NIMs was estimated from the slope of the curves in the Rate of Excretion plots (log-linear Rate of excretion (ΔU/Δt) versus mid-point time). […]
# [2] = Enzymatic hydrolysis (β-glucuronidase/sulfatase) of urine of temephos-treated rats, HPLC-DAD; type: in vitro ADME, rat; conditions: 50 °C, 1 h, vs non-hydrolyzed urine
# Description: as §1, with “Both supernatants were pooled and dried using anhydrous sodium sulfate. The solvent evaporated under a nitrogen current. The extracts were stored at −20 °C until analysis by HPLC-DAD. Extracts were dissolved in 200 µL of acetonitrile immediately before analysis.” left out
# Temephos and its metabolites were analyzed by injecting urinary extracts into a liquid chromatograph equipped with a quaternary pump, autosampler, degasser, and UV-Vis Diode-Array detector (Agilent 1200, Agilent Technologies, Palo Alto, CA, USA). […] The concentrations of temephos, TDP, TDP-SO, and BPS were determined using calibration graphs of each compound. […]
# [3] = urine, male adult rats, single oral dose of temephos 300 mg/kg
# [4] = urine, urine, male adult rats, single oral dose of temephos 300 mg/kg, read-out: KElim-U 2nd Phase (converted)
# [5] = urine, urine, male adult rats, single oral dose of temephos 300 mg/kg, read-out: t1/2 Elim-U 2nd Phase (converted)
# [6] = urine, rats, single oral dose of temephos 300 mg/kg
SMILES,parent compound in urine [1],parent compound in urine ([1]; listed as temephos),increase of level in urine extracts after enzyme hydrolysis [2],"Tmax [1, 3] [h]","k el ([1]; urine, urine, male adult rats, single oral dose of temephos 300 mg/kg, read-out: KElim-U 1st Phase (converted)) [s⁻¹]","k el [1, 4] [s⁻¹]","half-life ([1]; urine, urine, male adult rats, single oral dose of temephos 300 mg/kg, read-out: t1/2 Elim-U 1st Phase (converted)) [h]","half-life [1, 5] [h]","AUC0–∞ [1, 3]","Cmax-U [1, 3]","tmax-U [1, 3] [h]","Cmax fold higher than that of BPS [1, 6] [fold]","Cmax fold higher than that of NIMs [1, 6] [fold]","time detected in urine after dosing [1, 6]","half-life ([1]; urine, urine, rats, single oral dose of temephos 300 mg/kg, read-out: t1/2 Elim-U (monophasic decline, one-compartment model) (converted)) [h]","time after which detection in urine was difficult [1, 6] [h]"
"COP(=S)(OC)Oc1ccc(Sc2ccc(OP(=S)(OC)OC)cc2)cc1 [Temephos, temephos]",practically undetectable,only traces,,,,,,,,,,,,,,
"Oc1ccc(Sc2ccc(O)cc2)cc1 [TDP, 4,4′-thiodiphenol]",,,more than 60 fold,9,6.93e-06,7.08e-07,27.8,272,"297,540 ± 76,013 nmol-h/mg Creatinine",366 nmol/mg Creatinine and 366 ± 115 nmol/mg Creatinine,10 ± 4,8.9,4.2,up to 320 h,,
"O=S(=O)(c1ccc(O)cc1)c1ccc(O)cc1 [BPS, 4,4′-sulfonyldiphenol]",,,about 2 fold,9 ± 6,,1.09e-05,,17.7,2455 ± 974 nmol-h/mg Creatinine,41 ± 16 nmol/mg Creatinine,,,,40 h,17.7,48
